Experimental data from patent US6191290A, “Taxane derivatives for targeted therapy of cancer” (UAB Research Foundation, priority 2000, dated 2001).

Assays:
[1] = Solubility in aqueous and organic solvents; assay type: physicochemical; details: unconjugated peptide
Excerpt: Prior to the biological evaluation of this compound, two key issues needed to be addressed: The overall water solubility and the cell surface receptor binding ability of the conjugate.

[2] = tested on: G18 human astrocytoma cells; details: cited from earlier work
[3] = tested on: NCI-H1299 cells; assay: Cytotoxicity assay at day 4 against NCI-H1299 cells, conjugate versus underivatized paclitaxel
Procedure: To evaluate the cytotoxic effects of the paclitaxel conjugate, experiments were designed to compare these effects with the underivatized, unconjugated paclitaxel.
To evaluate the cytotoxic activity of the conjugate relative to the intact, underivatized paclitaxel on the NCI-H1299 cells, 25 nM and 50 nM samples of paclitaxel and 10 nM and 30 nM solutions of the conjugate were incubated with the cells and the survival was assessed on day 4.

[4] = clinical trials; cited from earlier work
[5] = tested on: Burkitts lymphoma xenografts; details: nude mice bearing Burkitts lymphoma xenografts; cited from earlier work
[6] = Homo sapiens, NCI-H1299, 96 h, read-out: cytotoxicity (cell destruction)
[7] = Homo sapiens, NCI-H1299, 96 h, read-out: growth inhibition / cell destruction

Compound | solubility [1] | radiosensitizing effect [2] | cytotoxicity at 0.01 µM [3, 6] [%] | cytotoxicity at 0.025 µM [3, 6] [%] | inhibition at 0.025 µM [3, 7] [%] | inhibition at 0.05 µM [3, 7] [%] | cytotoxicity (cell destruction) ([3]; human, nci-h1299 cells, 96 h, 0.01 µM) [%] | reported side effects [4] | radiosensitizing effect [5]
CC(C)C[C@H](NC(=O)[C@H](Cc1cnc[nH]1)NC(=O)CNC(=O)[C@@H](NC(=O)[C@H](C)NC(=O)[C@H](Cc1c[nH]c2ccccc12)NC(=O)[C@@H](N)CCC(N)=O)C(C)C)C(N)=O [BBN[7-13]] | soluble only in DMF and alcohols | – | – | – | – | – | – | – | –
CC(=O)O[C@H]1C(=O)[C@@]2(C)[C@H]([C@H](OC(=O)c3ccccc3)[C@]3(O)C[C@H](OC(=O)[C@H](O)[C@@H](NC(=O)c4ccccc4)c4ccccc4)C(C)=C1C3(C)C)[C@]1(OC(C)=O)CO[C@@H]1C[C@@H]2O [paclitaxel] | – | radiosensitizing effect | 0 | 20 | 23 | 51 | 0 | neutropenia, mucositis, cardiac and neurological toxicities in addition to hypersensitivity | radiosensitizing effect
